Source: article PMC10508264, “Exploring the antioxidant, antimicrobial, cytotoxic and biothermodynamic properties of novel morpholine derivative bioactive Mn(II), Co(II) and Ni(II) complexes – combined experimental and theoretical measurements towards DNA/BSA/SARS-CoV-2 3CL^Pro” (RSC Medicinal Chemistry, 2023)

How the values were obtained:
[1] = tested on: Salmonella enterica serovar typhi; assay: Agar disc diffusion, strain B; format: cell-based; details: for Diameter of clear zone inhibition: control 6 mm
Staphylococcus Aureus = assay: Agar disc diffusion, strain F; format: cell-based; design: Inhibition%: concentration or dose not given beside the values; details: for Diameter of clear zone inhibition: control 6 mm
Shigella flexneri = assay: Agar disc diffusion, strain E; format: cell-based; design: Inhibition%: concentration or dose not given beside the values; details: for Diameter of clear zone inhibition: control 6 mm
Bacillus cereu = assay: Agar disc diffusion, strain G; format: cell-based; design: Inhibition%: concentration or dose not given beside the values; details: for Diameter of clear zone inhibition: control 6 mm
[2] = tested on: Salmonella enterica serovar typhi; assay: Agar disc diffusion, strain C; format: cell-based; details: for Diameter of clear zone inhibition: control 6 mm
Escherichia coli = assay: Agar disc diffusion, strain A; format: cell-based; design: Inhibition%: concentration or dose not given beside the values; details: for Diameter of clear zone inhibition: control (DMSO) 6 mm
Pseudomonas aeruginosa = assay: Agar disc diffusion, strain D; format: cell-based; design: Inhibition%: concentration or dose not given beside the values; details: for Diameter of clear zone inhibition: control 6 mm
Candida albicans = assay: Agar disc diffusion, strain I; format: cell-based; design: Inhibition%: concentration or dose not given beside the values; details: for Diameter of clear zone inhibition: control 6 mm
Mucor indicus = assay: Agar disc diffusion, strain J; format: cell-based; design: Inhibition%: concentration or dose not given beside the values; details: for Diameter of clear zone inhibition: control 6 mm
Aspergillus niger = assay: Agar disc diffusion, strain H; format: cell-based; design: Inhibition%: concentration or dose not given beside the values; details: for Diameter of clear zone inhibition: control 6 mm
[3] = DPPH radical scavenging assay; format: biochemical; details: for % Inhibition, DPPH: 517 nm
[4] = Nitric oxide scavenging assay; format: biochemical; details: 546 nm
[5] = Hydroxyl radical scavenging assay; format: biochemical; details: for % Inhibition, hydroxyl radical: 230 nm
[6] = Superoxide scavenging assay; details: 590 nm
A549 = assay: MTT cell viability assay, A549; format: cell-based, human; details: A549, 72 h of exposure
NHDF = assay: MTT cell viability assay, NHDF; format: cell-based, human; details: NHDF normal cells, 72 h of exposure
Procedure: Cellular viability or metabolic properties can be measured using the MTT assay, which is a powerful and consistent method for cytotoxic properties. […] As per the colorimetric approach, the IC50 values of all compounds were evaluated via the percentage of cell viability or inhibition of growth.[128] […] However, complexes (2) and (3) were exposed to similar cytotoxic potential as the others,[129] which induces apoptosis due to their ability to produce ROS more efficiently than the free ligand. […] The cytotoxic effectiveness is dependent upon the DNA binding modalities, the structure–activity relationship, the drug concentrations, and the incubation period exposure.[130] […] Coordination between the ligands and metal ions results in charge equilibration, which diminishes the polarity of the metal ions and also causes the ability of the test complexes to pass via the cell membrane lipid layer in accordance with Tweedy's chelation theory. Thus, it inhibits the synthesis of cell-wall/protein/nucleic acid. Additionally, the results of DNA binding tests using these complexes, including gel electrophoresis, UV-vis spectral titration, hydrodynamics, emission, and CV findings, were in good agreement with the findings of cytotoxicity.[131] Expressions eqn (44) and (45) were applied to measure the percentage of growth inhibition and cell viability (Table 10). In this case, complexes (2) and (3) have been proven to have greater biological efficiency than the others. Cytotoxicity depends on not only the hydrophilicity or lipophilicity and permeability, which only assist the crossing of the cell membrane but are not responsible for cell death, but also on several other factors, including the Lewis acid character, overall stability, solubility, conductivity, compatibility, length of the metal–ligand bond, overall charge, electron density, reduction potential, dipole moment, intermolecular hydrogen bonds, proton transfer equilibrium, and coordination environment. These significant elements might also contribute to the increased biological activity. Moreover, cobalt is also generally not considered to be a very toxic element, and its coordination complexes have fascinating redox and magnetic characteristics that fit them for a remarkable range of biological and medical uses. […] Moreover, it is possible to intelligently adjust these factors to successfully target a desired pathway or biomolecule. Designing such well-controlled and selective cobalt-based therapeutics may benefit from a mechanistic understanding of the varied bioactivities of cobalt complexes. Thus, knowing the mechanism of action can direct the advancement of prospective cobalt treatments to clinical trial.[133]
2.5. Assessment of in-vitro antimicrobial properties
bacteria and 7 days for fungal strains.

MCF-7 = assay: MTT cell viability assay, MCF-7; format: cell-based, human; details: MCF-7, 72 h of exposure
HepG2 = assay: MTT cell viability assay, HepG2; format: cell-based, human; details: HepG2, 72 h of exposure
CT-DNA [7] = assay: DNA binding by viscometric (hydrodynamic) technique
Procedure: The hydrodynamic properties were measured using an Ostwald viscometer with the help of a thermostat (25 ± 0.1 °C). The specific viscosity of DNA was also measured in the presence and absence of the test samples.[13,30]
Generally, when the major/minor groove binding, electrostatic, partial, and non-classical interaction modes are involved between chemical substances and DNA base pairs, the final DNA relative viscosity remains unchanged or undergoes a very negligible change due to reducing the contour length of DNA. When the intercalation binding modes are involved between a chemical substance and DNA base pairs via π–π stacking interactions and hydrophobic forces, an increase in relative viscosity is noted due to a rise in the contour length of DNA. Moreover, for the purpose of observing alterations in the CT-DNA helical structure, the viscosity findings for CT-DNA, various concentrations of chemical substances present, and EtBr were recorded. It was also noted that the absolute viscosity rose consistently along with the incremental concentration of each substance at the fixed DNA concentration. As a result of the strong binding mode of intercalation, the contour length of the double-helix DNA rises.[72] The obtained results are also compared with those of the classical intercalator (EB). The affinity interaction and their slope values were observed from the relative specific viscosity (η/η0)^1/3 plotted as a straight line contrasting [compound]/[DNA] and absolute specific viscosity of DNA in the presence or absence of chemical substances was evaluated using eqn (11) (Table 3). In the experiment, it was clearly noted that the slope values for all samples increased due to the rising binding affinity. The evaluated slopes were in the following sequence: (EB) 1.215 > (2) 0.860 > (3) 0.801 > (1) 0.662 > (HL) 0.490 (Fig. S21 ^† and Table 3). […] Due to the existence of 2,2′-bipyridine and the morpholine-fused aromatic planar systems, compounds can interact with DNA robustly via intercalation. The outcomes agreed with the observed outcomes of electronic absorption spectral characteristics.
11 [drawing 21] where η and η0 represent the specific viscosity of DNA in the presence of the complex and the specific viscosity of DNA alone, t0, tDNA and tcomplex represent the average flow time of the Tris–HCl buffer solution, the average flow time of the DNA alone solution, and the average flow time of DNA interacted with the samples, respectively. Error limit ± 2.5% (P < 0.025). […]
2.2.4. Assessment of DNA affinity by hydrodynamic technique
Hydrodynamic properties were performed using an Ostwald viscometer with the help of a thermostat (25 ± 0.1 °C). The experiment was performed of all samples, including ethidium bromide at various concentrations (20, 40, 60, 80, 100 µM) and each test compound was mixed with the deoxyribonucleic acid solution (100 µM) in the Ostwald viscometer. With a help of digital stopwatch, average flow time was gauged three times for each addition, and the specific viscosity of deoxyribonucleic acid was also measured in the presence and absence of test samples. […]
Also, the emission spectral titration for all compounds was also carried out at a fixed concentration (25 μM) of BSA with an incremental concentration of substances (0–25 µM)

CT-DNA [8] = assay: DNA thermal denaturation / biothermodynamic properties; format: binding; details: adduct vs CT-DNA alone

NCC[C@H](O)C(=O)N[C@@H]1C[C@H](N)[C@@H](O[C@H]2O[C@H](CN)[C@@H](O)[C@H](O)[C@H]2O)[C@H](O)[C@H]1O[C@H]1O[C@H](CO)[C@@H](O)[C@H](N)[C@H]1O [Amikacin, amikacin, reference compound]
Inhibition% [1]: 73%
Diameter of clear zone inhibition [1]: 22 mm
Inhibition% (Staphylococcus Aureus): 70%
Diameter of clear zone inhibition (Staphylococcus Aureus): 20 mm
Inhibition% (Shigella flexneri): 70%
Diameter of clear zone inhibition (Shigella flexneri): 20 mm
Inhibition% (Bacillus cereu): 70%
Diameter of clear zone inhibition (Bacillus cereu): 20 mm
Inhibition% [2]: 75%
Diameter of clear zone inhibition [2]: 24 mm
Inhibition% (Escherichia coli): 73%
Diameter of clear zone inhibition (Escherichia coli): 22 mm
Inhibition% (Pseudomonas aeruginosa): 70%
Diameter of clear zone inhibition (Pseudomonas aeruginosa): 20 mm

C[C@@H]1[C@H](O)[C@@H](C)/C=C/C=C/C=C/C=C/C=C/C=C/C=C/[C@H](O[C@@H]2O[C@H](C)[C@@H](O)[C@H](N)[C@@H]2O)C[C@@H]2O[C@](O)(C[C@@H](O)C[C@@H](O)[C@H](O)CC[C@@H](O)C[C@@H](O)CC(=O)O[C@H]1C)C[C@H](O)[C@H]2C(=O)O [Amphotericin B, amphotericin B, reference compound]
Inhibition% (Candida albicans): 65%
Diameter of clear zone inhibition (Candida albicans): 17 mm
Inhibition% (Mucor indicus): 65%
Diameter of clear zone inhibition (Mucor indicus): 17 mm
Inhibition% (Aspergillus niger): 60%
Diameter of clear zone inhibition (Aspergillus niger): 15 mm

O=C1O[C@H]([C@@H](O)CO)C(O)=C1O [Ascorbic acid, ascorbic acid, reference compound]
IC50 [3]: 80 µM
% Inhibition, DPPH ([3]; 40 µM): 41.63%
% Inhibition, DPPH ([3]; 80 µM): 53.74%
% Inhibition, DPPH ([3]; 120 µM): 58.95%
% Inhibition, DPPH ([3]; 160 µM): 70.86%
% Inhibition, DPPH ([3]; 200 µM): 82.75%
% Inhibition, DPPH ([3]; 240 µM): 85.65%
% Inhibition, nitric oxide ([4]; 40 µM): 28.55%
% Inhibition, nitric oxide ([4]; 80 µM): 35.75%
% Inhibition, nitric oxide ([4]; 120 µM): 43.65%
% Inhibition, nitric oxide ([4]; 160 µM): 52.68%
% Inhibition, nitric oxide ([4]; 200 µM): 63.72%
% Inhibition, nitric oxide ([4]; 240 µM): 72.73%
IC50 [5]: 160 µM
% Inhibition, hydroxyl radical ([5]; 40 µM): 20.73%
% Inhibition, hydroxyl radical ([5]; 80 µM): 36.46%
% Inhibition, hydroxyl radical ([5]; 120 µM): 47.87%
% Inhibition, hydroxyl radical ([5]; 160 µM): 59.65%
% Inhibition, hydroxyl radical ([5]; 200 µM): 65.64%
% Inhibition, hydroxyl radical ([5]; 240 µM): 78.83%
% Inhibition, superoxide ([6]; 40 µM): 29.64%
% Inhibition, superoxide ([6]; 80 µM): 41.72%
% Inhibition, superoxide ([6]; 120 µM): 55.63%
% Inhibition, superoxide ([6]; 160 µM): 66.75%
% Inhibition, superoxide ([6]; 200 µM): 72.55%
% Inhibition, superoxide ([6]; 240 µM): 84.85%

N.N.[Cl][Pt][Cl] [Cisplatin, cisplatin, reference compound]
IC50 (A549): 31.9 ± 1.6 µM
IC50 (NHDF): 26.9 ± 1.3 µM
IC50 (MCF-7): 20.2 ± 1 µM
IC50 (HepG2): 22.9 ± 1.1 µM

CC[n+]1c(-c2ccccc2)c2cc(N)ccc2c2ccc(N)cc21 [EB, ethidium bromide, reference compound]
Slope of (η/η0)^1/3 vs [compound]/[DNA] (CT-DNA [7]): 1.215
Relative specific viscosity (η/η0)^1/3 (CT-DNA [7]; [complex]/[DNA] = 0.2): 1.01
Relative specific viscosity (η/η0)^1/3 (CT-DNA [7]; [complex]/[DNA] = 0.4): 1.35
Relative specific viscosity (η/η0)^1/3 (CT-DNA [7]; [complex]/[DNA] = 0.6): 1.63
Relative specific viscosity (η/η0)^1/3 (CT-DNA [7]; [complex]/[DNA] = 0.8): 1.82
Relative specific viscosity (η/η0)^1/3 (CT-DNA [7]; [complex]/[DNA] = 1.0): 1.99
ΔTm (CT-DNA [8]): 13 °C

CC(=O)N1CCN(c2ccc(OCC3COC(Cn4ccnc4)(c4ccc(Cl)cc4Cl)O3)cc2)CC1 (centres unmarked) [Ketoconazole, ketoconazole, reference compound]
Inhibition% (Candida albicans): 67%
Diameter of clear zone inhibition (Candida albicans): 18 mm
Inhibition% (Mucor indicus): 67%
Diameter of clear zone inhibition (Mucor indicus): 18 mm
Inhibition% (Aspergillus niger): 63%
Diameter of clear zone inhibition (Aspergillus niger): 16 mm

[H]/N=C(/N)N[C@H]1[C@H](O)[C@@H](O)[C@H](O[C@@H]2O[C@@H](C)[C@](O)(C=O)[C@H]2O[C@@H]2O[C@@H](CO)[C@H](O)[C@@H](O)[C@@H]2NC)[C@@H](N/C(N)=N\[H])[C@@H]1O [Streptomycin, streptomycin, reference compound]
Inhibition% [1]: 77%
Diameter of clear zone inhibition [1]: 26 mm
Inhibition% (Staphylococcus Aureus): 71%
Diameter of clear zone inhibition (Staphylococcus Aureus): 21 mm
Inhibition% (Shigella flexneri): 76%
Diameter of clear zone inhibition (Shigella flexneri): 25 mm
Inhibition% (Bacillus cereu): 71%
Diameter of clear zone inhibition (Bacillus cereu): 21 mm
Inhibition% [2]: 75%
Diameter of clear zone inhibition [2]: 24 mm
Inhibition% (Escherichia coli): 75%
Diameter of clear zone inhibition (Escherichia coli): 24 mm
Inhibition% (Pseudomonas aeruginosa): 71%
Diameter of clear zone inhibition (Pseudomonas aeruginosa): 21 mm
